Reference: the NIST ThermoML archive (doi:10.1016/j.jct.2014.05.016)
± gives the expanded uncertainty stated by the source.

How the values were obtained:
[1] = 100 kPa, Liquid; for viscosity: Concentric cylinders viscometry; for mass density: Vibrating tube method
[2] = xn = mol fraction of the nth substance listed; conditions: 100 kPa, Liquid; for viscosity: Concentric cylinders viscometry; for mass density: Vibrating tube method

C[n+]1ccn(CCO)c1.F[B-](F)(F)F [1-(2-hydroxyethyl)-3-methylimidazolium tetrafluoroborate]
[1]
Conditions | mass density [kg/m3] | viscosity [mPa·s]
293.15 K | 1362.4 ± 1.1 | 153.6 ± 12
298.15 K | 1358.7 ± 1.1 | 115.1 ± 9.3
303.15 K | 1354.8 ± 1.1 | 87.98 ± 7.1
308.15 K | 1351.2 ± 1.1 | 68.59 ± 5.5
313.15 K | 1347.4 ± 1.1 | 54.81 ± 4.4
318.15 K | 1343.7 ± 1.1 | 44.44 ± 3.6
323.15 K | 1340.1 ± 1.1 | 36.5 ± 2.9
328.15 K | 1336.4 ± 1.1 | 30.46 ± 2.4
333.15 K | 1332.8 ± 1.1 | 25.73 ± 2.1
338.15 K | 1329.2 ± 1.1 | 21.98 ± 1.8
343.15 K | 1325.5 ± 1.1 | 18.95 ± 1.5

CCCCn1cc[n+](C)c1.F[B-](F)(F)F [1-butyl-3-methylimidazolium tetrafluoroborate]
[1]
Conditions | mass density [kg/m3] | viscosity [mPa·s]
293.15 K | 1204 ± 1.1 | 141.1 ± 12
298.15 K | 1200.5 ± 1.1 | 107.5 ± 8.7
303.15 K | 1197 ± 1.1 | 83.48 ± 6.7
308.15 K | 1193.4 ± 1.1 | 65.97 ± 5.3
313.15 K | 1189.9 ± 1.1 | 53 ± 4.2
318.15 K | 1186.3 ± 1.1 | 43.21 ± 3.5
323.15 K | 1182.8 ± 1.1 | 35.7 ± 2.9
328.15 K | 1179.3 ± 1.1 | 29.86 ± 2.4
333.15 K | 1175.8 ± 1.1 | 25.26 ± 2
338.15 K | 1172.3 ± 1.1 | 21.59 ± 1.7
343.15 K | 1168.9 ± 1.1 | 18.62 ± 1.5

CCCCn1cc[n+](C)c1.F[B-](F)(F)F [1-butyl-3-methylimidazolium tetrafluoroborate] + CCCC[n+]1ccccc1.F[B-](F)(F)F
[2], x1 = 1
Conditions | mass density [kg/m3] | viscosity [mPa·s]
293.15 K | 1204 ± 1.1 | 141.1 ± 12
298.15 K | 1200.5 ± 1.1 | 107.5 ± 8.7
303.15 K | 1197 ± 1.1 | 83.48 ± 6.7
308.15 K | 1193.4 ± 1.1 | 65.97 ± 5.3
313.15 K | 1189.9 ± 1.1 | 53 ± 4.2
318.15 K | 1186.3 ± 1.1 | 43.21 ± 3.5
323.15 K | 1182.8 ± 1.1 | 35.7 ± 2.9
328.15 K | 1179.3 ± 1.1 | 29.86 ± 2.4
333.15 K | 1175.8 ± 1.1 | 25.26 ± 2
338.15 K | 1172.3 ± 1.1 | 21.59 ± 1.7
343.15 K | 1168.9 ± 1.1 | 18.62 ± 1.5

CCCCn1cc[n+](C)c1.F[B-](F)(F)F [1-butyl-3-methylimidazolium tetrafluoroborate] + C[n+]1ccn(CCO)c1.F[B-](F)(F)F
[2], x2 = 0
Conditions | mass density [kg/m3] | viscosity [mPa·s]
293.15 K | 1204 ± 1.1 | 141.1 ± 12
298.15 K | 1200.5 ± 1.1 | 107.5 ± 8.7
303.15 K | 1197 ± 1.1 | 83.48 ± 6.7
308.15 K | 1193.4 ± 1.1 | 65.97 ± 5.3
313.15 K | 1189.9 ± 1.1 | 53 ± 4.2
318.15 K | 1186.3 ± 1.1 | 43.21 ± 3.5
323.15 K | 1182.8 ± 1.1 | 35.7 ± 2.9
328.15 K | 1179.3 ± 1.1 | 29.86 ± 2.4
333.15 K | 1175.8 ± 1.1 | 25.26 ± 2
338.15 K | 1172.3 ± 1.1 | 21.59 ± 1.7
343.15 K | 1168.9 ± 1.1 | 18.62 ± 1.5

CCCC[n+]1ccccc1.F[B-](F)(F)F [1-butylpyridinium tetrafluoroborate]
[1]
Conditions | mass density [kg/m3] | viscosity [mPa·s]
293.15 K | 1216.6 ± 1.1 | 228.9 ± 19
298.15 K | 1213.1 ± 1.1 | 166.9 ± 14
303.15 K | 1209.6 ± 1.1 | 124.5 ± 10
308.15 K | 1206.2 ± 1.1 | 94.97 ± 7.6
313.15 K | 1202.8 ± 1.1 | 73.94 ± 5.9
318.15 K | 1199.4 ± 1.1 | 58.64 ± 4.7
323.15 K | 1196 ± 1.1 | 47.29 ± 3.8
328.15 K | 1192.6 ± 1.1 | 38.71 ± 3.1
333.15 K | 1189.2 ± 1.1 | 32.12 ± 2.6
338.15 K | 1185.8 ± 1.1 | 26.98 ± 2.2
343.15 K | 1182.5 ± 1.1 | 22.97 ± 1.8

CCCC[n+]1ccccc1.F[B-](F)(F)F [1-butylpyridinium tetrafluoroborate] + C[n+]1ccn(CCO)c1.F[B-](F)(F)F
[2], x2 = 0
Conditions | mass density [kg/m3] | viscosity [mPa·s]
293.15 K | 1216.6 ± 1.1 | 228.9 ± 19
298.15 K | 1213.1 ± 1.1 | 166.9 ± 14
303.15 K | 1209.6 ± 1.1 | 124.5 ± 10
308.15 K | 1206.2 ± 1.1 | 94.97 ± 7.6
313.15 K | 1202.8 ± 1.1 | 73.94 ± 5.9
318.15 K | 1199.4 ± 1.1 | 58.64 ± 4.7
323.15 K | 1196 ± 1.1 | 47.29 ± 3.8
328.15 K | 1192.6 ± 1.1 | 38.71 ± 3.1
333.15 K | 1189.2 ± 1.1 | 32.12 ± 2.6
338.15 K | 1185.8 ± 1.1 | 26.98 ± 2.2
343.15 K | 1182.5 ± 1.1 | 22.97 ± 1.8
